Measured values from ChEMBL document CHEMBL5724914, “Linking interpersonal differences in gut microbiota composition and drug biotransformation activity” (2024).

Key:
[1] = The drug is tested on Z-029 corresponding to rat gut metagenome with ENA study accession number: PRJEB37062 and ENA sample accession number: ERS12561828 for biotransformation under anaerobic condition. The drug concentrations were measured over 9 timepoints collected between 0 and 24 hours of incubation by liquid-chromatography-coupled mass spectrometry (LC–MS); conditions: 2 µM
[2] = The drug is tested on Z-028 corresponding to mouse gut metagenome with ENA study accession number: PRJEB37062 and ENA sample accession number: ERS12561827 for biotransformation under anaerobic condition. The drug concentrations were measured over 9 timepoints collected between 0 and 24 hours of incubation by liquid-chromatography-coupled mass spectrometry (LC–MS); conditions: 2 µM
[3] = The drug is tested on Z-022 corresponding to mouse gut metagenome with ENA study accession number: PRJEB37062 and ENA sample accession number: ERS12561821 for biotransformation under anaerobic condition. The drug concentrations were measured over 9 timepoints collected between 0 and 24 hours of incubation by liquid-chromatography-coupled mass spectrometry (LC–MS); conditions: 2 µM
[4] = The drug is tested on Z-008 corresponding to metagenome with ENA study accession number: PRJEB37062 and ENA sample accession number: ERS12561808 for biotransformation under anaerobic condition. The drug concentrations were measured over 9 timepoints collected between 0 and 24 hours of incubation by liquid-chromatography-coupled mass spectrometry (LC–MS); conditions: 2 µM
[5] = The drug is tested on WLS-098 corresponding to human gut metagenome with ENA study accession number: PRJEB37062 and ENA sample accession number: ERS12561754 for biotransformation under anaerobic condition. The drug concentrations were measured over 9 timepoints collected between 0 and 24 hours of incubation by liquid-chromatography-coupled mass spectrometry (LC–MS); conditions: 2 µM
[6] = The drug is tested on WLS-039 corresponding to human gut metagenome with ENA study accession number: PRJEB37062 and ENA sample accession number: ERS12561746 for biotransformation under anaerobic condition. The drug concentrations were measured over 9 timepoints collected between 0 and 24 hours of incubation by liquid-chromatography-coupled mass spectrometry (LC–MS); conditions: 2 µM
[7] = The drug is tested on WLS-038 corresponding to human gut metagenome with ENA study accession number: PRJEB37062 and ENA sample accession number: ERS12561745 for biotransformation under anaerobic condition. The drug concentrations were measured over 9 timepoints collected between 0 and 24 hours of incubation by liquid-chromatography-coupled mass spectrometry (LC–MS); conditions: 2 µM
[8] = The drug is tested on WLS-006 corresponding to human gut metagenome with ENA study accession number: PRJEB37062 and ENA sample accession number: ERS12561741 for biotransformation under anaerobic condition. The drug concentrations were measured over 9 timepoints collected between 0 and 24 hours of incubation by liquid-chromatography-coupled mass spectrometry (LC–MS); conditions: 2 µM
[9] = human gut metagenome, 24 h, 2 µM
[10] = human gut metagenome, 24 h, 2 µM; remark: listed apart in the source
[11] = human gut metagenome, 24 h, 2 µM; remark: listed apart in the source
[12] = human gut metagenome, 24 h, 2 µM; remark: listed apart in the source
[13] = human gut metagenome, 24 h, 2 µM; remark: listed apart in the source
[14] = human gut metagenome, 24 h, 2 µM; remark: listed apart in the source
[15] = The drug is tested on Z-019 corresponding to rat gut metagenome with ENA study accession number: PRJEB37062 and ENA sample accession number: ERS12561818 for biotransformation under anaerobic condition. The drug concentrations were measured over 9 timepoints collected between 0 and 24 hours of incubation by liquid-chromatography-coupled mass spectrometry (LC–MS); conditions: 2 µM
[16] = The drug is tested on Z-018 corresponding to pig gut metagenome with ENA study accession number: PRJEB37062 and ENA sample accession number: ERS12561817 for biotransformation under anaerobic condition. The drug concentrations were measured over 9 timepoints collected between 0 and 24 hours of incubation by liquid-chromatography-coupled mass spectrometry (LC–MS); conditions: 2 µM
[17] = The drug is tested on WLS-310 corresponding to human gut metagenome with ENA study accession number: PRJEB37062 and ENA sample accession number: ERS12561785 for biotransformation under anaerobic condition. The drug concentrations were measured over 9 timepoints collected between 0 and 24 hours of incubation by liquid-chromatography-coupled mass spectrometry (LC–MS); conditions: 2 µM
[18] = The drug is tested on WLS-073 corresponding to human gut metagenome with ENA study accession number: PRJEB37062 and ENA sample accession number: ERS12561749 for biotransformation under anaerobic condition. The drug concentrations were measured over 9 timepoints collected between 0 and 24 hours of incubation by liquid-chromatography-coupled mass spectrometry (LC–MS); conditions: 2 µM
[19] = The drug is tested on WLS-069 corresponding to human gut metagenome with ENA study accession number: PRJEB37062 and ENA sample accession number: ERS12561748 for biotransformation under anaerobic condition. The drug concentrations were measured over 9 timepoints collected between 0 and 24 hours of incubation by liquid-chromatography-coupled mass spectrometry (LC–MS); conditions: 2 µM
[20] = The drug is tested on Z-020 corresponding to rabbit gut metagenome with ENA study accession number: PRJEB37062 and ENA sample accession number: ERS12561819 for biotransformation under anaerobic condition. The drug concentrations were measured over 9 timepoints collected between 0 and 24 hours of incubation by liquid-chromatography-coupled mass spectrometry (LC–MS); conditions: 2 µM
Further: call rule not given here.

SMILES | Bacterial Biotransformation [1] | Bacterial Biotransformation [2] | Bacterial Biotransformation [3] | Bacterial Biotransformation [4] | Bacterial Biotransformation [5] | Bacterial Biotransformation [6] | Bacterial Biotransformation [7] | Bacterial Biotransformation [8] | Bacterial Biotransformation [9] | Bacterial Biotransformation [10] | Bacterial Biotransformation [11] | Bacterial Biotransformation [12] | Bacterial Biotransformation [13] | Bacterial Biotransformation [14] | Bacterial Biotransformation [15] | Bacterial Biotransformation [16] | Bacterial Biotransformation [17] | Bacterial Biotransformation [18] | Bacterial Biotransformation [19] | Bacterial Biotransformation [20]
CSc1ccc2c(c1)C(N1CCN(C)CC1)Cc1ccccc1S2.O=C(O)/C=C\C(=O)O (stereo not drawn) | Compound NOT metabolized | Compound NOT metabolized | Compound metabolized | Compound NOT metabolized | Compound metabolized | Compound metabolized | Compound NOT metabolized | Compound NOT metabolized | Compound NOT metabolized | Compound NOT metabolized | Compound NOT metabolized | Compound NOT metabolized | Compound NOT metabolized | Compound NOT metabolized | – | – | – | – | – | –
CC(C)C[C@H]1C(=O)N2CCC[C@H]2[C@]2(O)O[C@](NC(=O)[C@@H]3C=C4c5cccc6[nH]c(Br)c(c56)C[C@H]4N(C)C3)(C(C)C)C(=O)N12.CS(=O)(=O)O [BROMOCRIPTINE MESYLATE] | Compound metabolized | Compound metabolized | Compound metabolized | Compound metabolized | Compound metabolized | Compound metabolized | Compound metabolized | Compound metabolized | Compound metabolized | Compound metabolized | – | Compound NOT metabolized | Compound NOT metabolized | Compound metabolized | Compound metabolized | Compound metabolized | Compound metabolized | Compound metabolized | Compound metabolized | –
CN1CCC[C@@H]1CCO[C@](C)(c1ccccc1)c1ccc(Cl)cc1.O=C(O)/C=C/C(=O)O [CLEMASTINE FUMARATE] | Compound NOT metabolized | Compound NOT metabolized | Compound NOT metabolized | Compound NOT metabolized | Compound metabolized | Compound metabolized | Compound metabolized | Compound NOT metabolized | Compound NOT metabolized | Compound NOT metabolized | Compound metabolized | Compound NOT metabolized | Compound metabolized | Compound metabolized | – | Compound NOT metabolized | Compound metabolized | Compound NOT metabolized | Compound metabolized | Compound NOT metabolized
CCOC(=O)[C@H](CCc1ccccc1)N[C@@H](C)C(=O)N1CCC[C@H]1C(=O)O.O=C(O)/C=C\C(=O)O [ENALAPRIL MALEATE] | Compound NOT metabolized | Compound NOT metabolized | Compound NOT metabolized | Compound NOT metabolized | Compound NOT metabolized | Compound NOT metabolized | Compound NOT metabolized | Compound NOT metabolized | Compound NOT metabolized | Compound NOT metabolized | Compound NOT metabolized | Compound NOT metabolized | Compound NOT metabolized | Compound NOT metabolized | – | – | Compound NOT metabolized | Compound NOT metabolized | Compound NOT metabolized | –
CC(C)(C)NC(=O)[C@H]1CC[C@H]2[C@@H]3CC[C@H]4NC(=O)C=C[C@]4(C)[C@H]3CC[C@]12C [FINASTERIDE] | Compound NOT metabolized | Compound metabolized | Compound metabolized | Compound NOT metabolized | Compound metabolized | Compound metabolized | Compound metabolized | Compound metabolized | Compound metabolized | Compound metabolized | Compound metabolized | Compound NOT metabolized | Compound metabolized | Compound metabolized | – | Compound metabolized | Compound metabolized | Compound metabolized | Compound metabolized | Compound metabolized
CN1[C@@H]2CC[C@H]1C[C@@H](OC(=O)[C@H](CO)c1ccccc1)C2 [HYOSCYAMINE] | Compound NOT metabolized | Compound NOT metabolized | Compound NOT metabolized | – | Compound metabolized | – | – | – | Compound NOT metabolized | – | – | Compound NOT metabolized | – | – | Compound NOT metabolized | Compound NOT metabolized | Compound metabolized | Compound NOT metabolized | – | –
Cc1ccc(NC(=O)c2ccc(CN3CCN(C)CC3)cc2)cc1Nc1nccc(-c2cccnc2)n1 [IMATINIB] | Compound NOT metabolized | Compound NOT metabolized | Compound NOT metabolized | Compound NOT metabolized | – | – | – | – | – | – | – | – | – | – | – | Compound NOT metabolized | – | – | – | Compound NOT metabolized
